Data set [1] addresses T1, Recombinant Human PDE IV Enzyme (HSPDE4A) (Homo sapiens, UniProt P27815).
T1 construct: except that 223 amino acids have been deleted from the N-terminal thereof; made in house; host or cells: E. coli
Put plainly: Inhibition test on recombinant human PDE IV enzyme. It is filed as biochemical. Conditions: [3H]cAMP substrate. Here is the method:
Inhibition Test on Recombinant Human PDE IV Enzyme
Human phosphodiesterase cDNA (HSPDE4A) was isolated from testicles. Its predicted amino acid sequence is identical with the sequence (HSPDE4A5) reported by Bolger, G. et al. (Mol. Cell. Biol., 6558 (1993)) except that 223 amino acids have been deleted from the N-terminal thereof. This recombinant protein was expressed by an E. coli expression plasmid and then purified. The PDE activity was measured in the following 2-step process according to the method of Kincaid, R. and Manganiello, V. [Method. Enzymol., 159, 457 (1988)]. The substrate used was [^3H]cAMP (final concentration: […]), and the reaction was performed in a standard mixture containing N,N-bis(2-hydroxyethyl)-2-aminoethanesulfonic acid (50 mmol/l, pH 7.2), MgCl2 (1 mmol/l) and soybean trypsin inhibitor (0.1 mg/ml). The reaction was initiated by adding the enzyme thereto, and the mixture was incubated at 30° C. for 10 to 30 minutes. The reaction was quenched by hydrochloric acid, and the formed 5′-AMP was completely decomposed with […]. This sample was subjected to chromatography on DEAE-Sephadex A-25, and the eluted [^3H]adenosine was counted with a scintillation counter. The test compound was added after dissolved (concentration: 1.7%) in DMSO.

The next data set has as its system TNF α. Put plainly: Inhibitory activity on production of TNF α in mouse model with LPS-induced sepsis. It is filed as in vivo, BALB/c male mice. Conditions: Dose (mg) 30; orally administered 90 minutes before LPS i.v.; serum TNF α by ELISA 1 hour after LPS. In general terms: ELISA stands for enzyme-linked immunosorbent assay.
The mark [2] stands for this setting: concentration of test compound 10^−7 mol/L.
The mark [3] stands for this setting: concentration of test compound 10^−8 mol/L.

The values that follow come from patent publication US6395738B1, “Benzofuran derivatives” (Kyowa Hakko Kogyo Co., Ltd., priority 1997, dated 2002).

As a reminder, the melting point is the temperature of the solid-liquid transition.

T1 sequence (P27815 224-886 limits assumed): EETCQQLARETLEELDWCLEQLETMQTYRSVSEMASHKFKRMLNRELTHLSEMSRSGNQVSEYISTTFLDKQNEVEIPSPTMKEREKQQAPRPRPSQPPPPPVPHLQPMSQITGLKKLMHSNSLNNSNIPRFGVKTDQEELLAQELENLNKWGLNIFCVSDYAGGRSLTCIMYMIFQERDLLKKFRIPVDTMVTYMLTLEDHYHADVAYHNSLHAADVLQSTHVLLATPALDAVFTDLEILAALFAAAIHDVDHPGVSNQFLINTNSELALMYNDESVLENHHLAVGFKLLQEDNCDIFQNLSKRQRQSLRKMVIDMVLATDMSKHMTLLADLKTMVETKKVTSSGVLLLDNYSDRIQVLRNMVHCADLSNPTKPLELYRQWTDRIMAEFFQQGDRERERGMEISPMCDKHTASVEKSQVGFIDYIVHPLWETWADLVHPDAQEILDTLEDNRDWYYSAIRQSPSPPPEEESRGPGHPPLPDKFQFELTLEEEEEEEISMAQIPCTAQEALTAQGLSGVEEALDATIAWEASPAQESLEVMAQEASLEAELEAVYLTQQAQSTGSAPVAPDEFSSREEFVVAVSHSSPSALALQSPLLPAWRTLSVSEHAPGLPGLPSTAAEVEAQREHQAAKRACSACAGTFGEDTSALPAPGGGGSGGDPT

`CCC(CO)N1CCN(C(=O)c2cc3c(C(=O)Nc4c(Cl)cncc4Cl)ccc(OC)c3o2)CC1` (centres unmarked) [Compound 5, 4-(3,5-Dichloro-4-pyridyl)carbamoyl-2-[4-(1-hydroxy-2-butyl)-1-piperazinyl]carbonyl-7-methoxybenzofuran] came in with a melting point of 192 to 194 °C. In data set [1] (setting [2]), the “Ratio of inhibition (%)” value came to 89%. In addition, in data set [1] (setting [3]), the “Ratio of inhibition (%)” value is listed as 41%. The “Ratio of inhibition (%) of TNF α production” value with TNF α was 53%.

The compound `COc1ccc(C(=O)Nc2c(Cl)cncc2Cl)c2cc(C(=O)N3CCN(CCOCCO)CC3)oc12` [Compound 9, 4-(3,5-Dichloro-4-pyridyl)carbamoyl-2-{4-[2-(2-hydroxyethoxy)ethyl]-1-piperazinyl}carbonyl-7-methoxybenzofuran] had a melting point of 132 to 133 °C. Also, the “Ratio of inhibition (%)” value in data set [1] (setting [2]) came out at 78%. Also, the “Ratio of inhibition (%)” value in data set [1] (setting [3]) was 29%.

In the case of `COc1ccc(C(=O)Cc2c(Cl)cncc2Cl)c2cc(C(=O)N3CCN(C(C)CO)CC3)oc12` (centres unmarked) [Compound 18, 4-[2-(3,5-Dichloro-4-pyridyl)-1-oxoethyl]-2-[4-(1-hydroxy-2-propyl)-1-piperazinyl]carbonyl-7-methoxybenzofuran], the melting point lay in the range of 187 to 189 °C. Also, the “Ratio of inhibition (%) of TNF α production” value in the data set on TNF α came out at 66%.

As for `COc1ccc(C(=O)Nc2c(Cl)cncc2Cl)c2cc(C(=O)N3CCN(CCCCO)CC3)oc12` [Compound 7, 4-(3,5-Dichloro-4-pyridyl)carbamoyl-2-(4-hydroxybutyl-1-piperazinyl)carbonyl-7-methoxybenzofuran], the entries for the “Ratio of inhibition (%)” value in data set [1] (setting [2]) and in data set [1] (setting [3]) were 83% and 35%, respectively.

Regarding `COc1ccc(C(=O)Nc2c(Cl)cncc2Cl)c2cc(C(=O)N3CC(C)N(CCO)C(C)C3)oc12` (centres unmarked) [Compound 11, 4-(3,5-Dichloro-4-pyridyl)carbamoyl-2-(3,5-dimethyl-4-hydroxyethyl-7-methoxy-1-piperazinyl)carbonylbenzofuran], the “Ratio of inhibition (%)” value in data set [1] (setting [2]) was determined as 88%; in data set [1] (setting [3]), 48%.

Take `COc1ccc(C(=O)Cc2c(Cl)cncc2Cl)c2cc(C(=O)N3CCNCC3)oc12.Cl` [Compound 24, 4-[2-(3,5-Dichloro-4-pyridyl)-1-oxoethyl]-2-(1-piperazinyl)carbonyl-7-methoxybenzofuran Monohydrochloride]: the “Ratio of inhibition (%) of TNF α production” value with TNF α came out at 47%.

The compound `COc1ccc(C(=O)Cc2c(Cl)cncc2Cl)c2cc(C(=O)N3CCN(CCCCO)CC3)oc12` [Compound 21, 4-[2-(3,5-Dichloro-4-pyridyl)-1-oxoethyl]-2-[4-(4-hydroxybutyl)-1-piperazinyl]carbonyl-7-methoxybenzofuran] displayed a melting point of 120 to 121 °C. For the same compound, in the data set with TNF α, the “Ratio of inhibition (%) of TNF α production” value is on record as 28%.

For the compound `CCC(CO)N1CCN(C(=O)c2cc3c(C(=O)Cc4c(Cl)cncc4Cl)ccc(OC)c3o2)CC1` (centres unmarked) [Compound 19, 4-[2-(3,5-Dichloro-4-pyridyl)-1-oxoethyl]-2-[4-(1-hydroxy-2-butyl)-1-piperazinyl]carbonyl-7-methoxybenzofuran], the melting point is 150 to 152 °C. For the same compound, the “Ratio of inhibition (%) of TNF α production” value in the data set with TNF α worked out at 68%.

For `COC(=O)c1ccc(C(=O)Nc2c(Cl)cncc2Cl)c2cc(N3CCN(C(C)CO)CC3)oc12` (centres unmarked) [Compound 4, 4-(3,5-Dichloro-4-pyridyl)carbamoyl-2-[4-(1-hydroxy-2-propyl)-1-piperazinyl]-7-methoxycarbonylbenzofuran], the melting point was 148 to 150 °C. In addition, the “Ratio of inhibition (%)” value in data set [1] (setting [2]) was 85%. Moreover, the “Ratio of inhibition (%)” value in data set [1] (setting [3]) is reported as 28%.

For the compound `COc1ccc(C(=O)Cc2c(Cl)cncc2Cl)c2cc(C(=O)N3CCN(C(CO)CO)CC3)oc12` [Compound 22, 4-[2-(3,5-Dichloro-4-pyridyl)-1-oxoethyl]-2-[4-(1,3-dihydroxy-2-propyl)-1-piperazinyl]carbonyl-7-methoxybenzofuran], the melting point lay in the range of 213 to 215 °C. Moreover, the “Ratio of inhibition (%) of TNF α production” value with TNF α came out at 52%.

`CCN1CCN(C(=O)c2cc3c(C(=O)Nc4c(Cl)cncc4Cl)ccc(OC)c3o2)CC1.O=C(O)/C=C/C(=O)O` [Compound 3, 4-(3,5-Dichloro-4-pyridyl)carbamoyl-2-(4-ethyl-1-piperazinyl)carbonyl-7-methoxybenzofuran monofumarate] yielded a melting point of 202 to 204 °C. Besides, the “Ratio of inhibition (%)” value in data set [1] (setting [2]) was 71%. Further, in data set [1] (setting [3]), the “Ratio of inhibition (%)” value was found to be 20%. In the data set with TNF α, the “Ratio of inhibition (%) of TNF α production” value turned out to be 50%.

`COc1ccc(C(=O)Nc2c(Cl)cncc2Cl)c2cc(C(=O)N3CC(C)N(C)C(C)C3)oc12` (centres unmarked) [Compound 10, 4-(3,5-Dichloro-4-pyridyl)carbamoyl-7-methoxy-2-(3,4,5-trimethyl-1-piperazinyl)carbonylbenzofuran] yielded a melting point of 234 to 236 °C. For the same compound, the “Ratio of inhibition (%)” value in data set [1] (setting [2]) is on record as 75%. Also, in data set [1] (setting [3]), the “Ratio of inhibition (%)” value is recorded as 9%. Further, in the data set on TNF α, the “Ratio of inhibition (%) of TNF α production” value amounted to 46%.

With `COc1ccc(C(=O)Nc2c(Cl)cncc2Cl)c2cc(C(=O)N3CCNCC3)oc12` [Compound 12, 4-(3,5-Dichloro-4-pyridyl)carbamoyl-7-methoxy-2-(1-piperazinyl)carbonylbenzofuran], in the data set with TNF α, the “Ratio of inhibition (%) of TNF α production” value worked out at 27%.

For `COc1ccc(C(=O)Cc2c(Cl)cncc2Cl)c2cc(C(=O)N3CCN(CCOCCO)CC3)oc12` [Compound 23, 4-[2-(3,5-Dichloro-4-pyridyl)-1-oxoethyl]-2-{4-[2-(2-hydroxyethoxy)ethyl]-1-piperazinyl}carbonyl-7-methoxybenzofuran], the melting point fell in the range of 132 to 133 °C.

In turn, `COc1ccc(CCc2c(Cl)cncc2Cl)c2cc(C(=O)N3CCN(CCO)CC3)oc12.O=C(O)/C=C/C(=O)O` yielded a melting point of 184 to 185 °C.

The compound `COc1ccc(C(=O)Cc2c(Cl)cncc2Cl)c2cc(C(=O)N3CC(C)N(C)C(C)C3)oc12` (centres unmarked) [Compound 25, 4-[2-(3,5-Dichloro-4-pyridyl)-1-oxoethyl]-7-methoxy-2-(3,4,5-trimethyl-1-piperazinyl)carbonylbenzofuran] registered a melting point of 173 to 174 °C. Besides, in the data set with TNF α, the “Ratio of inhibition (%) of TNF α production” value was 53%.

On to `CCN1CCN(c2cc3c(C(=O)Cc4c(Cl)cncc4Cl)ccc(C(=O)OC)c3o2)CC1.O=C(O)/C=C/C(=O)O` [Compound 15, 4-[2-(3,5-Dichloro-4-pyridyl)-1-oxoethyl]-2-(4-ethyl-1-piperazinyl)-7-methoxycarbonylbenzofuran Monofumarate], for which the melting point is 196 to 198 °C. Moreover, the “Ratio of inhibition (%) of TNF α production” value in the data set on TNF α is 61%.

The compound `COc1ccc(C(=O)Cc2c(Cl)cncc2Cl)c2cc(C(=O)N3CCN(CCCO)CC3)oc12` [Compound 20, 4-[2-(3,5-Dichloro-4-pyridyl)-1-oxoethyl]-2-[4-(3-hydroxypropyl)-1-piperazinyl]carbonyl-7-methoxybenzofuran] displayed a melting point of 162 to 163 °C. Further, the “Ratio of inhibition (%) of TNF α production” value in the data set with TNF α is reported as 40%.

Consider `COc1ccc(C(=O)Nc2c(Cl)cncc2Cl)c2cc(C(=O)N3CCN(CCCO)CC3)oc12` [Compound 6, 4-(3,5-Dichloro-4-pyridyl)carbamoyl-2-(4-hydroxypropyl-1-piperazinyl)carbonyl-7-methoxybenzofuran], for which the melting point fell in the range of 180 to 182 °C. Besides, in data set [1] (setting [2]), the “Ratio of inhibition (%)” value worked out at 81%. Also, in data set [1] (setting [3]), the “Ratio of inhibition (%)” value turned out to be 24%. The “Ratio of inhibition (%) of TNF α production” value in the data set with TNF α amounted to 33%.

In turn, `COc1ccc(CCc2c(Cl)cncc2Cl)c2cc(C(=O)N3CCN(C)CC3)oc12.O=C(O)/C=C/C(=O)O` displayed a melting point of 186 to 187 °C.

`COc1ccc(C(=O)Cc2c(Cl)cncc2Cl)c2cc(C(=O)N3CCN(C(C)C)CC3)oc12.O=C(O)/C=C/C(=O)O` [Compound 16, 4-[2-(3,5-Dichloro-4-pyridyl)-1-oxoethyl]-2-(4-isopropyl-1-piperazinyl)carbonyl-7-methoxybenzofuran Monofumarate] displayed a melting point of 195 to 196 °C. Moreover, in the data set on TNF α, the “Ratio of inhibition (%) of TNF α production” value was determined as 67%.

The compound `COc1ccc(C(=O)Cc2c(Cl)cncc2Cl)c2cc(C(=O)N3CC(C)N(CCO)C(C)C3)oc12` (centres unmarked) [Compound 26, 4-[2-(3,5-Dichloro-4-pyridyl)-1-oxoethyl]-2-(3,5-dimethyl-4-hydroxyethyl-1-piperazinyl)carbonyl-7-methoxybenzofuran] returned a melting point of 187 to 188 °C.

In the case of `CCOCCN1CCN(C(=O)c2cc3c(C(=O)Cc4c(Cl)cncc4Cl)ccc(OC)c3o2)CC1.O=C(O)/C=C/C(=O)O` [Compound 17, 4-[2-(3,5-Dichloro-4-pyridyl)-1-oxoethyl]-2-(4-ethoxyethyl-1-piperazinyl)carbonyl-7-methoxybenzofuran Monofumarate], the melting point lay in the range of 184 to 185 °C. In addition, in the data set on TNF α, the “Ratio of inhibition (%) of TNF α production” value is 62%.
